How the values were obtained:
[1] = test system: HL-60 cells; test: MTT assay, inhibition of HL-60 cells; assay type: cell-based, human; conditions: HL-60, Table 15
Procedure: Human cancer cell lines (KB, A2780, MCF-7, HL-60, A549) were used. For a monolayer culture, 0.5 ml of trypsin solution ([…]) was added to the flasks for digestion. Microtiter plates (96 well) were used for the cell culture and 200 μl of cell suspension (1200 tumor cells) were placed in each well and incubated at 37° C. for 24 hours. Following the addition of the test compound, the control and treated flasks were placed in a CO2 incubator for 5 day culture. For the MTT assay, 200 μl of MTT solution (5 mg in 10 ml of phosphate buffer) plus the medium were added and incubated for another 4 hours. Following incubation, the supernatant was discarded and 200 μl of DMSO was added to each well. With a mild agitation the OD values were determined by the MR 700 Elisa at 570 nm (reference wavelength was 450 nm). The ED50 of the compound and tumor cell survival rate [formula] as percent inhibition were calculated.
(§1) The protocols of Examples 14 and 21 were used, for the NBT and MTT assays, respectively.

[2] = test system: Human promyelocytic leukemia HL-60 cells; test: Cell differentiation of HL-60 cells, nitroblue tetrazolium (NBT) reduction / morphology; assay type: cell-based
Procedure: Human promyelocytic leukemia HL-60 cells were cultured in RPMI-1640 medium supplemented by 10% heat-inactivated calf serum and 100 U/ml of penicillin plus 100 μg/ml of streptomycin. The flasks containing cells and medium were incubated in an incubator with 5% CO2 at 37° C. Log phase cells were seeded into the medium at a concentration of 1.2×10^5to 1.4×10^5 cells per ml and cultured in flasks containing 5 ml of medium. Each group consisted of three flasks. Different concentrations of coumarin-retinoids were added. At intervals following the addition of coumarin-retinoids to the cultures, a small portion of cells was removed and live cells were counted under a light microscope using a dye-exclusionmethod with trypan blue. Cell differentiation was judged in terms of morphology and nitroblue tetrazolium (NBT) reduction.
For a determination of NBT reducing activity, a portion of the coumarin-retinoid-treated cells was removed at intervals following treatment and centrifuged. After centrifugation, 0.5 ml of 0.1% NBT (containing 100 ng TPA) was added to each tube. The contents of the test tubes were then incubated for 1 hour at 37° C. Cell smears were prepared from the cell sediment and stained using the Wright-Giemsa technique. For each smear prepared, 200 cells were isolated for examination under a light microscope with an oil immersion lens. Cells stained with blue-black granules were considered NBT-positive cells. The 50% differentiation or effective concentration (ED50 or EC50) is shown in terms of molar (M) concentration of the […] tested.
For a determination of cell morphology, a cell smear was prepared at intervals following treatment of cells for each coumarin-retinoid concentration group using the Wright-Giemsa stain technique. Stained cells were counted and classified under a light microscope with an oil immersion lens. After treatment with coumarin-retinoids, the morphological development of HL-60 cells proceeded toward mature granulocytes. This development was manifested by decreased cell volume; a lower nuclei to cytoplasm ratio; smaller or missing nuclei; concentration of chromatin; and the appearance of a certain proportion of intermediate and late granuloblasts (progranulocytes), elongated rod granulocytes, and granulocytes with branched nuclei.
as §1

[3] = test system: fetus absorption in mice; test: Effect on fetus absorption in mice; assay type: in vivo
Procedure: (§2) Female mice were examined by vaginal smear the morning after being caged with male mice, and if sperm or a vaginal plug was discovered, then the mice were determined to be pregnant. The retinoids were administered at the dosage indicated starting on the seventh day of pregnancy and continued once a day for the next ten days. On the 20th day after the female mice were determined to be pregnant, they were sacrificed by cervical dislocation. Both sides of the uterus were checked and the number of living embryos, dead embryos, and absorbed embryos were counted. The living embryos were further examined for bone abnormalities.

[4] = test system: bone abnormalities in mouse fetus; test: Bone abnormalities in mouse fetus; assay type: in vivo
Procedure: as §2
After the embryos became transparent, they were dissected and their skeletons were checked by observation under a microscope.

[5] = test system: chondrosarcoma; test: Growth of chondrosarcoma in rats; assay type: in vivo; conditions: for Body Weight final: in g (unit assumed)
Source text: Transplantable chondrosarcomas obtained from Dr. Trown, Hoffman--La Roche Institute of Molecular Biology and Wistar rats obtained from the Breeding Center of Experimental Animals, Chinese Academy of Medical Sciences were used. According to the routine transplantation protocol as described in Cancer Treatment Reports 60(11):1647-1653 (1976) where the small pieces of chondrosarcoma tumor were implanted subcutaneously in the right inguinal region of rats using a trocar. Tumor-bearing rats were randomized to a control group and a treated group. Each group consisted of ten rats. […] Sixty days after transplantation, the rats were sacrificed and the tumor weight was determined. The inhibition rate was calculated according to the following formula: [formula]

Compound | EC50 ([1]; Homo sapiens) [µM] | NBT (+) % ([2]; 10^-5 M) [%] | NBT (+) % ([2]; 10^-6 M) [%] | NBT (+) % ([2]; 10^-7 M) [%] | also measured
CC1=C(/C=C/C(C)=C/C=C/C(C)=C/C(=O)Oc2cc(=O)oc3ccc(C)cc23)C(C)(C)CCC1 [Compound I-35, 4-retinoyloxy-6-methyl-coumarin] | 2.6 | – | – | – | –
CC(=O)c1cc2ccc(OC(=O)/C=C(C)/C=C/C=C(C)/C=C/C3=C(C)CCCC3(C)C)c(OC(=O)/C=C(C)/C=C/C=C(C)/C=C/C3=C(C)CCCC3(C)C)c2oc1=O [Compound I-9] | – | 96 | 88 | 55 | NBT (+) % ([2]; 10^-8 M): 31%; Fetus Absorption, absorbed number/implanted number ([3]; 20 mg/kg once a day from day 7 of pregnancy): 0/113; Fetus Absorption, absorbed number/implanted number ([3]; 40 mg/kg once a day from day 7 of pregnancy): 0/119; Delayed Calcification, Occipital delay/fetus number ([4]; 20 mg/kg): 0/75; Delayed Calcification, Sternum delay/fetus number ([4]; 20 mg/kg): 0/75; Delayed Calcification, Occipital delay/fetus number ([4]; 40 mg/kg): 3/77; Delayed Calcification, Sternum delay/fetus number ([4]; 40 mg/kg): 2/77
CCOC(=O)c1cc2cc(Cl)c(OC(=O)/C=C(C)/C=C/C=C(C)/C=C/C3=C(C)CCCC3(C)C)cc2oc1=O [Compound I-18] | – | 44 | 8 | – | –
CC1=C(/C=C/C(C)=C/C=C/C(C)=C/C(=O)Oc2cc(=O)oc3c(C)cccc23)C(C)(C)CCC1 [Compound I-29] | 1.9 | – | – | – | –
CCOC(=O)c1cc2ccc(OC(=O)/C=C(C)/C=C/C=C(C)/C=C/C3=C(C)CCCC3(C)C)c(C)c2oc1=O [Compound I-15] | – | 93 | 84 | 46 | NBT (+) % ([2]; 10^-8 M): 12%
CC(=O)c1cc2c(C)cc(OC(=O)/C=C(C)/C=C/C=C(C)/C=C/C3=C(C)CCCC3(C)C)cc2oc1=O [Compound I-2] | – | 84 | 38 | 2 | –
CC1=C(/C=C/C(C)=C/C=C/C(C)=C/C(=O)Oc2ccc3c(C)cc(=O)oc3c2C)C(C)(C)CCC1 [Compound I-30] | > 10 | – | – | – | –
CC(=O)c1cc2c(OC(=O)/C=C(C)/C=C/C=C(C)/C=C/C3=C(C)CCCC3(C)C)c(C(=O)O)ccc2oc1=O [Compound I-8] | – | 98 | 69 | 55 | NBT (+) % ([2]; 10^-8 M): 34%
CC1=C(/C=C/C(C)=C/C=C/C(C)=C/C(=O)Oc2ccc3c(C)cc(=O)oc3c2)C(C)(C)CCC1 [Compound I-32, 4-methyl-7-retinoyloxy-coumarin] | – | – | – | – | EC50 ([2]; HL-60, Table 15, read-out: NBT ED50): 13 µM; EC50 [1]: 11 µM
CC1=C(/C=C/C(C)=C/C=C/C(C)=C/C(=O)Oc2cc(C(=O)O)c3cc(C(N)=O)c(=O)oc3c2)C(C)(C)CCC1 [Compound I-26] | – | 97 | 91 | 53 | NBT (+) % ([2]; 10^-8 M): 34%
CC1=C(/C=C/C(C)=C/C=C/C(C)=C/C(=O)Oc2cc3oc(=O)c(C(N)=O)cc3cc2Cl)C(C)(C)CCC1 [Compound I-27] | – | 88 | 80 | 17 | –
CCOC(=O)c1cc2c(OC(=O)/C=C(C)/C=C/C=C(C)/C=C/C3=C(C)CCCC3(C)C)cc(OC(=O)/C=C(C)/C=C/C=C(C)/C=C/C3=C(C)CCCC3(C)C)cc2oc1=O [Compound I-21] | – | 94 | 80 | 41 | NBT (+) % ([2]; 10^-8 M): 17%
CC1=C(/C=C/C(C)=C/C=C/C(C)=C/C(=O)Nc2ncnc3c2ncn3C(=O)/C=C(C)/C=C/C=C(C)/C=C/C2=C(C)CCCC2(C)C)C(C)(C)CCC1 [II-A] | – | – | – | – | Absorbed Number ([3]; 20 mg/kg, implanted number 141, 12 pregnant mice): 10; Absorbed Number ([3]; 40 mg/kg, implanted number 181, 15 pregnant mice): 17; Animals final ([5]; 2 mg/kg × 10, initial 10): 9; Body Weight final ([5]; 2 mg/kg × 10, initial 74.1): 130.6; Inhibition rate (%) ([5]; 5 mg/kg × 10 (Table 14)): 62.6%; Tumor Weight ([5]; 5 mg/kg × 10 (Table 14)): 4.0 grams; Animals final ([5]; 5 mg/kg × 10, initial 10 (Table 14)): 9; Body Weight final ([5]; 5 mg/kg × 10, initial 71.7 (Table 14)): 129.2
CCOC(=O)c1cc2c(C(=O)O)cc(OC(=O)/C=C(C)/C=C/C=C(C)/C=C/C3=C(C)CCCC3(C)C)cc2oc1=O [Compound I-19] | – | 84 | 5 | – | NBT (+) % ([2]; 10^-4 M): 92%
CCOC(=O)c1cc(OC(=O)/C=C(C)/C=C/C=C(C)/C=C/C2=C(C)CCCC2(C)C)cc2oc(=O)c(C(C)=O)cc12 [Compound I-11, 3-acetyl-5-ethoxycarbyl-7-retinoyloxy-coumarin] | – | 72 | 49 | 8 | NBT (+) % ([2]; 10^-4 M): 77%
CC1=C(/C=C/C(C)=C/C=C/C(C)=C/C(=O)Oc2cc(=O)oc3ccc(C(C)(C)C)cc23)C(C)(C)CCC1 [Compound I-28, 4-retinoyloxy-6-t-butyl-coumarin] | > 10 | – | – | – | –
CC1=C(/C=C/C(C)=C/C=C/C(C)=C/C(=O)Oc2cc(OC(=O)/C=C(C)/C=C/C=C(C)/C=C/C3=C(C)CCCC3(C)C)c3c(C)cc(=O)oc3c2)C(C)(C)CCC1 [Compound I-33, 4-methyl-5,7-diretinoyloxy-coumarin] | 3.2 | – | – | – | –
CC(=O)c1cc2c(COC(=O)/C=C(C)/C=C/C=C(C)/C=C/C3=C(C)CCCC3(C)C)cc(OC(=O)/C=C(C)/C=C/C=C(C)/C=C/C3=C(C)CCCC3(C)C)cc2oc1=O [Compound I-7] | – | 85 | 65 | 12 | –
CC1=C(/C=C/C(C)=C/C=C/C(C)=C/C(=O)Oc2ccc3c(C)cc(=O)oc3c2OC(=O)/C=C(C)/C=C/C=C(C)/C=C/C2=C(C)CCCC2(C)C)C(C)(C)CCC1 [Compound I-36, 4-methyl-7,8-diretinoyloxy-coumarin] | 3.2 | – | – | – | –
CCc1cc2c(C)cc(=O)oc2cc1OC(=O)/C=C(C)/C=C/C=C(C)/C=C/C1=C(C)CCCC1(C)C [Compound I-31, 4-methyl-6-ethyl-7-retinoyloxy-coumarin] | > 10 | – | – | – | –
CC(=O)c1cc2ccc(OC(=O)/C=C(C)/C=C/C=C(C)/C=C/C3=C(C)CCCC3(C)C)c(C)c2oc1=O [Compound I-3] | – | 88 | 77 | 12 | –
CC(=O)c1cc2c(C(=O)O)cc(OC(=O)/C=C(C)/C=C/C=C(C)/C=C/C3=C(C)CCCC3(C)C)cc2oc1=O [Compound I-4, 3-acetyl-5-carboxy-7-retinoyloxy coumarin] | – | 92 | 84 | 73 | NBT (+) % ([2]; 10^-8 M): 15%
CCCCCCc1cc2c(C)cc(=O)oc2cc1OC(=O)/C=C(C)/C=C/C=C(C)/C=C/C1=C(C)CCCC1(C)C [Compound I-34, 4-methyl-6-hexyl-7-retinoyloxy-coumarin] | > 10 | – | – | – | –
CCCCCCCCCCCCOC(=O)c1cc(OC(=O)/C=C(C)/C=C/C=C(C)/C=C/C2=C(C)CCCC2(C)C)c(OC(=O)/C=C(C)/C=C/C=C(C)/C=C/C2=C(C)CCCC2(C)C)c2oc(=O)c(C(=O)OCC)cc12 [Compound I-12] | – | 82 | 47 | 30 | NBT (+) % ([2]; 10^-8 M): 0%; NBT (+) % ([2]; 10^-9 M): 0%
CCOC(=O)c1cc2ccc(OC(=O)/C=C(C)/C=C/C=C(C)/C=C/C3=C(C)CCCC3(C)C)cc2oc1=O [Compound I-17] | – | 84 | 54 | 2 | –

From patent publication US5968940A, “Retinoids and methods of use of same” (priority 1996, dated 1999)
